The source of these data is patent US20090226500A1, “SUTURES AND ANTI-SCARRING AGENTS” (Angiotech Pharmaceuticals, Inc, priority 2006, published 2009).

Like-named read-outs stand apart in the source and are kept apart here.

The test system of experiment [1] is TNFα production by THP-1 cells. Kind of experiment: TNF-alpha production by macrophages. The class given is cell-based, human. As to conditions: Homo sapiens; THP-1 cells stimulated with opsonized zymosan, 24 hours; read-out: IC50 TNFα production. The procedure, abridged: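 THP-1 cells (1×10^6 per well, 10% FCS) were stimulated with 1 mg/ml serum-opsonized zymosan and incubated with drug in triplicate for 24 h at 37 °C. TNFα in the supernatants was quantified by sandwich ELISA (HRP/TMB read-out) against a recombinant human TNFα standard curve.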

Experiment [2] deals with IL-8 production by THP-1 cells. Description: IL-8 production by macrophages. The class given is cell-based, human. Conditions: Homo sapiens, read-out: IC50 IL-8 production. The procedure:
The human macrophage cell line, THP-1 was plated in a 12 well plate such that each well contains 1×10^6 cells in 2 ml of media containing 10% FCS. Opsonized zymosan was prepared by resuspending 20 mg of zymosan A in 2 ml of ddH2O and homogenizing until a uniform suspension was obtained. Homogenized zymosan was pelleted at 250 g, resuspended in 4 ml of human serum for a final concentration of 5 mg/ml, and incubated in a 37° C. water bath for 20 minutes to enable opsonization. Geldanamycin was prepared in DMSO at a concentration of 10^−2 M and serially diluted 10-fold to give a range of stock concentrations (10^−8 M to 10^−2 M).
THP-1 cells were stimulated to produce IL-8 by the addition of 1 mg/ml opsonized zymosan. Geldanamycin was added to THP-1 cells by directly adding DMSO stock solutions, prepared earlier, at a 1/1000 dilution, to each well. Each drug concentration was tested in triplicate wells. Plates were incubated at 37° C. for 24 hours.
After a 24-hour stimulation, supernatants were collected to quantify IL-8 production. IL-8 concentrations in the supernatants were determined by ELISA using recombinant human IL-8 to obtain a standard curve. A 96-well MAXISORB plate was coated with 100 μL of anti-human IL-8 Capture Antibody diluted in Coating Buffer (0.1M sodium carbonate pH 9.5) overnight at 4° C. The dilution of Capture Antibody used was lot-specific and was determined empirically. Capture antibody was then aspirated and the plate washed 3 times with Wash Buffer (PBS, 0.05% TWEEN-20). Plates were blocked for 1 hour at room temperature with 200 μL/well of Assay Diluent (PBS, 10% FCS pH 7.0). After blocking, plates were washed 3 times with Wash Buffer. Standards and sample dilutions were prepared as follows: (a) sample supernatants were diluted 1/100 and 1/1000; (b) recombinant human IL-8 was prepared at 200 pg/ml and serially diluted to yield as standard curve of 3.1 pg/ml to 200 pg/ml Sample supernatants and standards were assayed in triplicate and were incubated at room temperature for 2 hours after addition to the plate coated with Capture Antibody The plates were washed 5 times and incubated with 100 μL of Working Detector (biotinylated anti-human IL-8 detection antibody+avidin-HRP) for 1 hour at room temperature. Following this incubation, the plates were washed 7 times and 100 μL of Substrate Solution (Tetramethylbenzidine, H2O2) was added to plates and incubated for 30 minutes at room temperature. Stop Solution (2 NH2SO4) was then added to the wells and a yellow color reaction was read at 450 nm with A correction at 570 nm. Mean absorbance was determined from triplicate data readings and the mean background was subtracted. IL-8 concentration values were obtained from the standard curve. […] The IC50 values for the following additional compounds were determined using this assay: IC50 (nM): 17-AAG, 56; mycophenolic acid, 549; resveratrol, 507; rapamycin, 4; 41; SP600125, 344; halofuginone, 641; D-mannose-6-phosphate, 220; epirubicin hydrochloride, 654; topotemay, 257; mithramycin, 33; daunorubicin, 421; celastrol, 490; chromomycin A3, 36

As usually defined, the IC50 is the point on the concentration scale where inhibition reaches its midpoint. For the compound `CC1=C(O)C(=O)C=C2C1=CC=C1[C@@]2(C)CC[C@@]2(C)[C@@H]3C[C@](C)(C(=O)O)CC[C@]3(C)CC[C@]12C` [celastrol], the IC50 was 87 nM in experiment [1] and 490 nM in experiment [2] (THP-1, 24 h).
Consider `COc1c(C)c2c(c(O)c1C/C=C(\C)CCC(=O)O)C(=O)OC2` [mycophenolic acid], for which the IC50 in experiment [1] was 756 nM; in experiment [2] (THP-1 cells stimulated with opsonized zymosan, 24 hours), 549 nM.
